Here are results for 3 compounds from patent US6242429A, “Arabinosyladenine derivatives” (priority 1998, dated 2001).

Structures are written as SMILES. “Also recorded” adds a separate entry of the source.

Data set [1] relates to adenosinedeaminase (ADA). Particulars: background statement; cited from earlier work.
Data set [2] relates to shingles herpes virus (VZV, Kawaguchi strain). Nature of the data set: Antiviral activity to shingles herpes virus, plaque numbers on HEL cells. The conditions noted are these: incubated one week, FIG. 1 and FIG. 2. Format: cell-based, varicella-zoster virus. The method, then: As a test for efficacy of antiviral activity, antiviral activity to shingles herpes virus was measured. Cell-free aricella-zoster virus (VZV) (Kawaguchi strain) was diluted and the resulting solution was layered on HEL cells of a 100% confluent. The layered product was placed in a CO2 incubator of 37° C., shaken every 15 minutes and infected for one hour. The virus solution was removed by suction, then DMEM containing 5% of FCS and a compound of the present invention, a control compound or Ara-A (positive control) was added thereto and the mixture was incubated for one week. The incubated mixture was fixed by formalin, dyed with Crystal Violet and numbers of plaques were measured. The inhibiting rate to shingles virus was determined from the plaque numbers of the control.

Data set [3] has as its system adenosinedeaminase (ADA). The experiment in a line: Stability to ADA, enzymatic reaction followed by decrease in UV absorption at 265 nm. Format: in vitro ADME. The conditions noted are these: 0.1 mM compound, 75 mM phosphate buffer pH 7.5, 25° C., UV 265 nm. The method, then:
An enzymatic reaction was carried out to test stability of the compounds to ADA. Thus, 200 μL (final concentration: 0.1 mM) of a 1 mM solution of a compound of the present invention, a control compound or Ara-A (control), 1.5 mL of a 0.1 M phosphate buffer (pH 7.5; final concentration: 75 mM) and 300 μL of a 200 units/mL enzyme solution (final concentration: […]) were placed in a UV cell and the decrease in ultraviolet absorption at 265 nm with a lapse of time was measured by an ultraviolet absorption meter. The enzymatic reaction was carried out at 25° C. As the enzymatic reaction proceeded, an ultraviolet absorption at 265 nm decreased and said rate of decrease in ultraviolet absorption was expressed as a relative enzymatic reaction rate.

Regarding `Nc1ncnc2c1ncn2[C@@H]1O[C@H](CO)[C@@H](O)[C@@H]1O` [Ara-A, Arabinosyladenine], the “metabolism by ADA in the blood stream” value in the data set with adenosinedeaminase (ADA) [1] is “quickly metabolized by adenosinedeaminase (ADA) in the blood stream to hypoxanthine arabinoside”.

`Cc1nc(N)c2ncn([C@@H]3O[C@H](CO)[C@@H](O)[C@@H]3O)c2n1` [control compound A, 9-(β-D-arabinofuranosyl)-2-methyladenine]: in data set [2], the “antiviral activity to shingles virus (inhibiting rate from plaque numbers)” value is “no strong antiviral action is obtained; also recorded: a sufficient antiviral action is not achieved”. In addition, the “resistance (stability) to metabolism by ADA, relative enzymatic reaction rate” value in the data set on adenosinedeaminase (ADA) [3] is given as “not satisfactory in terms of resistance to ADA; also recorded: did not show a favorable resistance to ADA”.

As to `CCc1nc(N)c2ncn([C@@H]3O[C@H](CO)[C@@H](O)[C@@H]3O)c2n1` [control compound B, 9-(β-D-arabinofuranosyl)-2-ethyladenine], in data set [2], the “antiviral activity to shingles virus (inhibiting rate from plaque numbers)” value is listed as “no strong antiviral action is obtained; also recorded: a sufficient antiviral action is not achieved”. In addition, the “resistance (stability) to metabolism by ADA, relative enzymatic reaction rate” value in the data set on adenosinedeaminase (ADA) [3] is “not satisfactory in terms of resistance to ADA; also recorded: did not show a favorable resistance to ADA”.
